From publication PMC10287695, “Non-covalent inhibitors of thioredoxin glutathione reductase with schistosomicidal activity in vivo” (Nature Communications, 2023)
“And” between values parts separate entries of the source, which are not always exact repeats. Identical values can stand only once. Like-named read-outs stand apart in the source and are kept apart here.

What was measured:
TGR [1] = target: T1, TGR (Schistosoma mansoni, UniProt Q962Y6, X597U); experiment: NADPH consumption (oxidase activity); assay type: biochemical, S. mansoni; conditions: replicates
T1 construct: made in house
Method: TRi-1, Stattic (both at 50 µM) and AF (20 µM) were incubated with 1 ml of 500 nM TGR and 100 µM NADPH in TGR reaction buffer for 30 min. The samples were desalted using a Zeba spin desalting column (Thermo Fisher Scientific) and 100 µl of the desalted sample was combined with 100 µl of 100 µM NADPH. NADPH consumption was monitored at 340 nm in triplicate. Compounds 1, 4, 6, and 7 (50 µM) were tested in the same fashion without the desalting step and with a first incubation step of 30 min for 6 and 7 and 2 h for 1 and 4.

TGR [2] = target: T1, TGR; experiment: Superoxide production (pyrogallol red); assay type: biochemical, S. mansoni; conditions: replicates
Method: The production of superoxide by TGR was determined by monitoring reaction of superoxide with pyrogallol red[80]. Briefly, a 1 ml reaction mix (500 nM TGR, 100 µM NADPH, and 20–50 µM inhibitor) was incubated at room temperature for 30 min for fast inhibitors, or 2 h for slow inhibitors. For irreversible inhibitor controls TRi-1 (synthesized in house as reported[45]), Stattic (Cayman Chemical), and AF (Cayman Chemical), the samples were desalted using a Zeba spin desalting column. 100 µL of sample was combined with pyrogallol buffer with and without superoxide dismutase (SOD) (50 µM pyrogallol red, 300 µM NADPH; ± 10 units SOD). The reaction was measured at A340 and A540 simultaneously for 2 h.

[3] = tested on: S. mansoni adult worms in mice; experiment: Schistosomicidal efficacy in infected mice, adult worms (42 d.p.i.); assay type: in vivo; conditions: for Egg burden, Treated, individual mice / Worm burden, Treated, individual mice: Adult worm; for Egg burden, Treated, individual mice: eggs per 50 mg liver (Fig. 6); for decrease in egg burden / decrease in worm burden: mice
Method: (§1) To assess the efficacy of the compounds in vivo against juvenile and adult worms, five female Swiss-Webster mice were randomly assigned for the control and experiment groups using a randomization tool embedded in GraphPad Prism. Mice were percutaneously exposed for 1 h to about 80 S. mansoni cercariae. Three- and six-weeks post infection, respectively, for juvenile and adult worms, mice were treated depending on their weight with formulations of the compounds, while the control mice received only the vehicle. Compounds were formulated with 10% DMSO and 10% Tween-80, and vortexed to obtain a uniform mixture. The mixture was sonicated twice for 5 min each time using a digital ultrasonic cleaner heated to 50 °C. Sodium chloride 0.9% (80% normal saline) was added to the mixture, briefly vortexed and sonicated one more time using the same conditions as previous. The investigators were blinded by which group of mice received a treatment and the vehicle, as injection was done by technicians from the Comparative Research Center of Rush University Medical Center. Using a 26 G, 3/8 in intradermal bevel needle, each mouse was administered intraperitoneally with 100 µl of the formulated compound suspension at 50 mg/kg, 100 mg/kg and 200 mg/kg. Mice treated three weeks post infection for juvenile worms were euthanized three weeks post treatment and mice treated six weeks post infection were euthanized one week post treatment with 0.018 ml of Euthasol and 5.85 mg/ml heparin and perfused. The mesenteric and hepatic portal veins of the mice were carefully scanned under the microscope to extract any remaining S. mansoni adult worms and worm burdens were determined. Egg burden was determined by weighing 50 mg of liver tissue from each of treated and control mice. The liver tissues were digested with 5% KOH at 37 °C overnight and washed twice with PBS. The number of eggs per 50 mg of liver tissue was determined using a Keyence BZ-X800 microscope using the egg autofluorescence.

[4] = tested on: S. mansoni juvenile worms in mice; experiment: Schistosomicidal efficacy in infected mice, juvenile worms (21 d.p.i.); assay type: in vivo; conditions: for Egg burden, Treated, individual mice / Worm burden, Treated, individual mice: Juvenile worm; for Egg burden, Treated, individual mice: eggs per 50 mg liver (Fig. 6); for decrease in egg burden / decrease in worm burden: mice
Method: as §1

BmTrxR = BmTrxR (Brugia malayi, UniProt A0A1I9G0T9); experiment: B. malayi TrxR enzyme inhibition; assay type: biochemical
Method: Recombinant TGR, human TrxR1, B. malayi (Bm)TrxR and human GR proteins were expressed and purified as described[20],[69],[79]. The codon optimized sequence for P. falciparum (PfTrxR, https://www.ncbi.nlm.nih.gov/protein/CAA60574.1/) with an N-terminal 6-His tag was synthesized and inserted into pET15b (GenScript) and expressed in BL21 (DE3) cells and purified as described for human GR[20]. […] The reaction was started with addition of an equal volume of DTNB (6 mM) and NADPH (100 µM) and the increase in A412 during the first 3 min was recorded. […] Activity was initiated with the addition of 1 mM GSSG and 100 μM NADPH and initial rates of NADPH oxidation were monitored at 340 nm. The reactions were done in triplicate. The IC50 was calculated in GraphPad Prism.

[5] = second of the two columns per substance (condition not given)
[6] = 1 x 100 mg/kg, listed as 8VP101
[7] = 1 x 100 mg/kg i.p. at 42 d.p.i.
[8] = 2 x 50 mg/kg i.p. at 42 and 45 d.p.i.
[9] = 1 x 100 mg/kg at 21 d.p.i. (juvenile worms)
[10] = BmTrxR, 10 µM compound, mean of 3 replicates, read-out: % inhibition
[11] = BmTrxR, 25 µM compound, mean of 3 replicates, read-out: % inhibition
[12] = BmTrxR, 50 µM compound, mean of 3 replicates, read-out: % inhibition
[13] = read-out: BmTrxR % inhibition at 50 µM, 50 µM, the highest concentration tested
[14] = 50 µM, the highest concentration tested
[15] = 1 x 100 mg/kg, listed as 8VP192
[16] = 2 x 100 mg/kg, listed as 8VP192
[17] = 2 x 100 mg/kg i.p. (1: bid at 42 d.p.i.; 6: at 42 and 45 d.p.i.)
[18] = 2 x 100 mg/kg at 21 d.p.i. (juvenile worms)
[19] = 1 x 100 mg/kg, listed as 9VP173
[20] = 1 x 200 mg/kg, listed as 9VP173
[21] = 1 x 200 mg/kg i.p. at 42 d.p.i.

| SMILES | NADPH consumption (rate/ΔOD340) (TGR [1]) | Superoxide production, Pyrogallol red consumption monitored ΔA540 (TGR [2]; condition not given) | Superoxide production, Pyrogallol red consumption monitored ΔA540 (TGR [2]; [5]) | decrease in egg burden [3, 7] | decrease in worm burden [3, 7] | inhibition at 10 µM (BmTrxR; [10]) [%] | inhibition at 25 µM (BmTrxR; [11]) [%] | inhibition at 50 µM (BmTrxR; [12]) [%] | inhibition at 50 µM (BmTrxR; [13]) [%] | other results |
| --- | --- | --- | --- | --- | --- | --- | --- | --- | --- | --- |
| CC(=O)OC[C@H]1O[C@@H]([S-])[C@H](OC(C)=O)[C@@H](OC(C)=O)[C@@H]1OC(C)=O.CCP(CC)CC.[Au+] [AF, auranofin, reference compound] | -0.0002869 and -0.0002715 and -0.0002247 | -0.0001303 and -1.372e-5 | -0.0001254 and 0.0001668 | – | – | – | – | – | – | – |
| CCc1ccccc1-c1nc(CN[C@@H]2C[C@@H]3C[C@H]([C@H]2C)C3(C)C)c(C)o1 [Compound 2] | – | – | – | 73% and 73.3% | 85% and 85.2% | 0.63 | 5.59 | 12.9 | 13 | Egg burden, Treated, individual mice [3, 6]: 296 and 301 and 311 and 299 and 321; Worm burden, Treated, individual mice [3, 6]: 8 and 6 and 4 and 5; Egg burden, Treated, individual mice ([3]; 2 x 50 mg/kg, listed as 8VP101): 319 and 335 and 372 and 393 and 436; Worm burden, Treated, individual mice ([3]; 2 x 50 mg/kg, listed as 8VP101): 5 and 10 and 8 and 4 and 3; decrease in egg burden [3, 8]: 69% and 68.8%; decrease in worm burden [3, 8]: 43% and 42.9%; Egg burden, Treated, individual mice [4, 6]: 986 and 1201 and 968 and 1001 and 988; Worm burden, Treated, individual mice [4, 6]: 12 and 13 and 11 and 8; ED50 ([4]; Schistosoma mansoni, 504 h, based on the single dose tested, 21 d.p.i., read-out: estimated ED50 against juvenile worms): < 100 mg/kg; decrease in egg burden [4, 9]: 56.7% and 57%; decrease in worm burden [4, 9]: 61.3% and 61% and > 60% |
| Cc1oc(-c2ccccc2)nc1CN[C@@H]1C[C@@H]2C[C@H]([C@H]1C)C2(C)C [Compound 3] | – | – | – | – | – | – | – | – | – | inhibition at 10 µM (BmTrxR): -15.1%; inhibition at 25 µM (BmTrxR): -10.6%; inhibition at 50 µM (BmTrxR): -20.9%; BmTrxR % inhibition at 50 µM (BmTrxR; [14]): n.i. |
| Cc1oc(C2CCCCC2)nc1CN[C@@H]1C[C@@H]2C[C@H]([C@H]1C)C2(C)C [Compound 4] | -0.0007477 and -0.0007112 and -0.0007089 | -0.0003594 and -0.0003266 and -0.0002925 | -3.468e-5 and -5.202e-5 | – | – | -0.192 | 0.661 | 0.575 | – | BmTrxR % inhibition at 50 µM (BmTrxR; [14]): n.i. |
| Cc1oc(-c2ccc3ccccc3c2)nc1CNC1CCCCCC1 [Compound 5] | – | – | – | – | – | -0.384 | 3.27 | 9.07 | 9 | – |
| C#CCN(Cc1nc(-c2ccccc2)oc1C)[C@@H]1C[C@@H]2C[C@H]([C@H]1C)C2(C)C [Compound 6] | -0.0004895 and -0.0006543 and -0.0006565 | -0.0001397 and -0.0001399 | -5.466e-5 and -1.08e-5 and -2.977e-5 | 3% and 2.8% | 34% and 33.9% | – | – | – | – | Egg burden, Treated, individual mice [3, 15]: 2001 and 2098 and 2074 and 2073; Worm burden, Treated, individual mice [3, 15]: 18 and 19 and 11 and 14 and 12; Egg burden, Treated, individual mice [3, 16]: 2011 and 2073 and 2001 and 2098 and 2074; Worm burden, Treated, individual mice [3, 16]: 23 and 26 and 25 and 20 and 22; decrease in egg burden [3, 17]: 18% and 18.2%; decrease in worm burden [3, 17]: 38% and 38.39%; Egg burden, Treated, individual mice [4, 16]: 2214 and 2212 and 2241 and 2153 and 2264; Worm burden, Treated, individual mice [4, 16]: 28 and 25 and 23 and 18 and 26; decrease in egg burden [4, 18]: 6.8% and 7%; decrease in worm burden [4, 18]: 15.5% and 16% |
| Cc1oc(C2CCCCC2)nc1C(=O)N[C@@H]1C[C@@H]2C[C@H]([C@H]1C)C2(C)C [Compound 7] | -0.0008479 and -0.0008204 and -0.0008408 | -0.0001477 and -0.0001374 and -0.0001423 | -5.501e-5 and -2.739e-5 and -2.749e-5 | – | – | -2.13 | -0.458 | -0.00455 | 11 | – |
| C[C@@H]1[C@H]2C[C@@H](C[C@H]1NCc1nc3ccccc3n1C1CCCCCC1)C2(C)C [Compound 8] | – | – | – | 2.1% | 13.5% | 17.7 | 43.3 | 68.2 | 67.7 | Egg burden, Treated, individual mice [3, 19]: 2302 and 2373 and 2391 and 2292 and 2275; Worm burden, Treated, individual mice [3, 19]: 24 and 25 and 21 and 15; Egg burden, Treated, individual mice [3, 20]: 2221 and 2235 and 2223 and 2217 and 2241; Worm burden, Treated, individual mice [3, 20]: 24 and 29 and 27 and 28 and 23; decrease in egg burden [3, 21]: 7% and 6.8%; decrease in worm burden [3, 21]: 19% and 18.9% |
| CC1C(NCc2cn(C3OCC(O)C(O)C3O)c3ccccc23)CC2CC1C2(C)C (stereo not shown) [Compound 9] | – | – | – | – | – | 47.6 | 70.1 | 83.3 | – | IC50 (BmTrxR): 13.7 ± 1.03 µM |
